Results taken from patent US20050228007A1, “Isoquinoline derivatives and methods of use thereof” (priority 2004, published 2005).
Each block holds one compound with its values, some of them ahead of it.

Assays:
[1] = biological target: T1, PARS (Mus musculus, UniProt P11103); experiment: PARS activation in peroxynitrite-treated cultured macrophages (whole-cell 3H-NAD+ assay); type: cell-based; conditions: cultured murine macrophages; for % PARS inhibition at 100 nM / inhibition at 0.1 µM: 100 nM; for % PARS inhibition at 300 nM / inhibition at 0.3 µM: 300 nM
T1 construct: endogenous in cells; host or cells: RAW mouse macrophages
Experimental: Raw mouse macrophages were cultured in DMEM medium with high glucose and supplemented with 10% fetal bovine serum. Cells were used at 80% confluence in 12-well plates. Cells were pretreated with various concentrations (100 nM -1 µM) of an Isoquinoline Derivative for 10 min. Peroxynitrite, a prototypical oxidant which induces DNA single strand breakage, was used to induce PARS activation. Peroxynitrite was diluted in phosphate buffered saline (PBS) (pH 11.0) and added to the cells in a bolus of 50 μl. Cells were then incubated for 20 min. […] After the 20 min incubation, the cells were spun, the medium was aspirated and the cells were resuspended in 0.5 ml assay buffer (56 mM HEPES pH 7.5, 28 mM KCl, 28 mM NaCl, 2 mM MgCl2, 0.01% w/v digitonin and 0.125 μM NAD^+ and 0.5 μCi/ml ^3H-NAD^+). Following an incubation in assay buffer, (10 min at 37° C.), PARS activity was measured as follows: 200 μl ice cold 50% w/v TCA was added and the samples were incubated for 4 hours at 4° C. Samples were then spun (10 min @ 10,000 g) and pellets washed twice with ice cold 5% w/v TCA and solubilized overnight in 250 μl 2% w/v SDS/0.1 N NaOH at 37° C. The contents of the tubes were added to 6.5 ml ScintiSafe Plus scintillation liquid (Fisher Scientific) and radioactivity was determined using a liquid scintillation counter (Wallac, Gaithersburg, Md.).

[2] = biological target: T1, PARS; experiment: Cell protection assay, peroxynitrite-treated raw mouse macrophages; type: cell-based; conditions: peroxynitrite 750 μM

T1 sequence (P11103 whole entry): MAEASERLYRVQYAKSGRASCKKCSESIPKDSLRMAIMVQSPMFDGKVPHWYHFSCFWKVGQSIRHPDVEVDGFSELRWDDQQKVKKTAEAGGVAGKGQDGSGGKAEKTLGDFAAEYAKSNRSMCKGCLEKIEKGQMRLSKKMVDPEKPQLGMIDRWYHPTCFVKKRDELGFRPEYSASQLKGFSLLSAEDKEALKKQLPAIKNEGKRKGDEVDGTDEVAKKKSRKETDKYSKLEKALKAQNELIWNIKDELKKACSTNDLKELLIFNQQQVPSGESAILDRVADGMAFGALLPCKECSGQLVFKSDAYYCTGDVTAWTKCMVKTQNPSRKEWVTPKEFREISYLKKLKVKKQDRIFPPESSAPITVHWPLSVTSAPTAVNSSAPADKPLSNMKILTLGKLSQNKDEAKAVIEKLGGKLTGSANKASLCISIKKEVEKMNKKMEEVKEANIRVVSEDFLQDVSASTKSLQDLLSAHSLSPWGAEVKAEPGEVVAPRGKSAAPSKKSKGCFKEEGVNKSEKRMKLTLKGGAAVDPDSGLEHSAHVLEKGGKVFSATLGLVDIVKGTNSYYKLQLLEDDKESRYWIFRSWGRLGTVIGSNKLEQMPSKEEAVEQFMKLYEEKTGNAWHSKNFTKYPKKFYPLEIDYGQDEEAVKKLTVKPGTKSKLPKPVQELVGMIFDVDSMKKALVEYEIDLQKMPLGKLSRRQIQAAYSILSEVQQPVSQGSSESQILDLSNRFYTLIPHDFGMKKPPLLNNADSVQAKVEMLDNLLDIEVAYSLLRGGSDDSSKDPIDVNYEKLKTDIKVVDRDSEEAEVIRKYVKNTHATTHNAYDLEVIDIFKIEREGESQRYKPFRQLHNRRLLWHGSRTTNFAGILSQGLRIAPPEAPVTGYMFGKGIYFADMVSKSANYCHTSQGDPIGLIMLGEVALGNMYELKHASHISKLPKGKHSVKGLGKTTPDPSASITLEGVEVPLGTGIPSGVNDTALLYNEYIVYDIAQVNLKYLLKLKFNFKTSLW

SMILES: CN1CCN(C2c3ccccc3-c3[nH]c(=O)c4ccccc4c32)CC1 (racemic) [Compound 5c, (±) 11-(N-methylpiperazin)-5,6-dihydro-5-oxo-11H-indeno[1,2-c]isoquinoline]
% PARS inhibition at 100 nM [1]: 0%
% PARS inhibition at 1 μM [1]: 24%

SMILES: O=c1[nH]c2c(c3ccccc13)C(Br)c1ccccc1-2 (racemic) [Compound 4b, (±) 11-bromo-5,6-dihydro-5-oxo-11H-indeno[1,2-c]isoquinoline]
inhibition at 0.1 µM [1]: 51%
inhibition at 1 µM [1]: 88%

SMILES: Nc1ccc2c(c1)Cc1c-2[nH]c(=O)c2ccccc12 [Compound 102, 5,6-Dihydro-5-oxo-9-amino-indeno[1,2-c]isoquinoline]
EC50 [2]: 95 nM

SMILES: O=c1[nH]c2c(c3ccccc13)C(N1CCOCC1)c1ccccc1-2 (racemic) [Compound 5e, (±) 11-morpholino-5,6-dihydro-5-oxo-11H-indeno[1,2-c]isoquinoline]
inhibition at 0.1 µM [1]: 0%
inhibition at 1 µM [1]: 21%

SMILES: COc1cccc(C2(O)c3ccccc3-c3[nH]c(=O)c4ccccc4c32)c1 (racemic) [Compound 3c, (±) 11-hydroxy-11-(m-methoxyphenyl)-5,6-dihydro-5-oxo-11H-indeno[1,2-c]isoquinoline]
inhibition at 0.3 µM [1]: 9%
inhibition at 1 µM [1]: 21%

SMILES: CC1(O)c2ccccc2-c2[nH]c(=O)c3ccccc3c21 (racemic) [Compound 3b, (±) 11-hydroxy-11-methyl-5,6-dihydro-5-oxo-11H-indeno[1,2-c]isoquinoline]
inhibition at 0.3 µM [1]: 0%
inhibition at 1 µM [1]: 25%

SMILES: O=c1[nH]c2c(c3ccccc13)Cc1cc(F)ccc1-2 [Compound 100]
EC50 [2]: 180 nM

SMILES: CCCNC(=O)Nc1ccc2c(c1)Cc1c-2[nH]c(=O)c2ccccc12 [Compound 105]
EC50 [2]: 80 nM

SMILES: O=c1[nH]c2c(c3ccccc13)C(O)c1ccccc1-2 (racemic) [Compound 3a, (±) 11-hydroxy-5,6-dihydro-5-oxo-11H-indeno[1,2-c]isoquinoline]
inhibition at 0.1 µM [1]: 8%
inhibition at 1 µM [1]: 67%

SMILES: O=c1[nH]c2c3ccccc3[nH]c2c2ccccc12 [Compound 31, 6H,11H-Indolo[3,2-c]Isoquinoline-5-one]
inhibition at 0.1 µM [1]: 18%

SMILES: CCN(CC)C1c2ccccc2-c2[nH]c(=O)c3ccccc3c21 (racemic) [Compound 5b, (±) 11diethylamino-5,6-dihydro-5-oxo-11H-indeno[1,2-c]isoquinoline]
inhibition at 0.1 µM [1]: 0%
inhibition at 1 µM [1]: 33%

SMILES: O=C1c2ccccc2-c2[nH]c(=O)c3ccccc3c21 [Compound 2, 5,6-dihydro-5,11-diketo-11H-indeno[1,2-c]isoquinoline]
inhibition at 0.1 µM [1]: 16%
inhibition at 1 µM [1]: 60%

SMILES: O=S(=O)(O)c1ccc2c(c1)Cc1c-2nc(O)c2ccccc12 [Compound 110]
EC50 [2]: 625 nM

SMILES: O=c1[nH]c2c(c3ccccc13)Cc1ccccc1-2 [Compound 6, 5,6-dihydro-5-oxo-11H-indeno[1,2-c]isoquinoline]
inhibition at 0.1 µM [1]: 30%
inhibition at 1 µM [1]: 65%

SMILES: O=C(CO)Nc1ccc2c(c1)Cc1c-2[nH]c(=O)c2ccccc12 [Compound 104]
EC50 [2]: 65 nM

SMILES: O=c1[nH]c2c(c3ccccc13)C(N1CCCCC1)c1ccccc1-2 (stereo not shown) [Compound 5d, 11-(piperidin)-5,6-dihydro-5-oxo-11H-indeno[1,2-c]isoquinoline]
% PARS inhibition at 100 nM [1]: 0%
% PARS inhibition at 1 μM [1]: 48%

SMILES: O=c1[nH]c2c(c3ccccc13)Cc1cc(S(=O)(=O)Cl)ccc1-2 [Compound 7, 9-chlorosulfonyl-5,6-dihydro-5-oxo-11H-indeno[1,2-c]isoquinoline]
inhibition at 0.1 µM [1]: 0%
inhibition at 1 µM [1]: 50%

SMILES: Oc1nc2c(c3ccccc13)Cc1ccc(F)cc1-2 [Compound 99]
EC50 [2]: 225 nM

SMILES: CN(C)C1c2ccccc2-c2[nH]c(=O)c3ccccc3c21 (racemic) [Compound 5a, (±) 11-N,N-dimethylamino-5,6-dihydro-5-oxo-11H-indeno[1,2-c]isoquinoline]
% PARS inhibition at 100 nM [1]: 10%
% PARS inhibition at 1 μM [1]: 55%

SMILES: O=S(=O)(NCCCN1CCOCC1)c1cc2c(cc1F)-c1nc(O)c3ccccc3c1C2 [Compound 107]
EC50 [2]: 10 nM

Further lines, results first:

% PARS inhibition at 300 nM [1]: 47%
SMILES: CN1CCN(S(=O)(=O)c2ccc3c(c2)Cc2c-3[nH]c(=O)c3ccccc23)CC1 [Compound 8a, 9-[N-(4-methylpiperazine-1-yl)sulphonyl]-5,6-dihydro-5-oxo-11H-indeno-[1,2-c]isoquinoline]

% PARS inhibition at 100 nM [1]: 20%
% PARS inhibition at 300 nM [1]: 28%
SMILES: CN(C)CCN(CCN(C)C)S(=O)(=O)c1ccc2c(c1)Cc1c-2[nH]c(=O)c2ccccc12 [Compound 8q, 9-[N,N di-(2-[N,N dimethylamino]ethyl)aminosulphonyl]-5,6-dihydro-5-oxo-11H-indeno-[1,2-c]isoquinoline]

% PARS inhibition at 300 nM [1]: 68%
SMILES: O=c1[nH]c2c(c3ccccc13)Cc1cc(S(=O)(=O)N3CCCC3CO)ccc1-2 (stereo not shown) [Compound 8e, 9-[N-(2-hydroxyprolinyl)sulphonyl]-5,6-dihydro-5-oxo-11H-indeno[1,2-c]isoquinoline]

% PARS inhibition at 100 nM [1]: 51%
% PARS inhibition at 1 μM [1]: 81%
SMILES: COc1ccc2oc3c4ccccc4c(=O)[nH]c3c2c1 [Compound 22a]

% PARS inhibition at 300 nM [1]: 50%
SMILES: O=c1[nH]c2c(c3ccccc13)Cc1cc(S(=O)(=O)NCCCN3CCCC3)ccc1-2 [Compound 8m, 9-[N-(3-[tetrahydropyrrolodino-1-yl]propyl)aminosulphonyl]-5,6-dihydro-5-oxo-11H-indeno-[1,2-c]isoquinoline]

% PARS inhibition at 300 nM [1]: 27%
SMILES: O=c1[nH]c2c(c3ccccc13)Cc1cc(S(=O)(=O)N3CCN(CCO)CC3)ccc1-2 [Compound 8c, 9-[N-4-(2-hydroxyethylpiperazino-1-yl)-sulphonyl]-5,6-dihydro-5-oxo-1H-indeno-[1,2-c]isoquinoline]

inhibition at 0.1 µM [1]: 53%
inhibition at 0.3 µM [1]: 57%
inhibition at 1 µM [1]: 58%
SMILES: O=c1[nH]c2c3ccc(O)cc3oc2c2ccccc12 [Compound 23b]

inhibition at 0.1 µM [1]: 14%
inhibition at 1 µM [1]: 75%
SMILES: NS(=O)(=O)c1ccc2c3[nH]c(=O)c4ccccc4c3n(S(N)(=O)=O)c2c1 [Compound 35a, 6H,11H-Indolo[3,2-c]Isoquinoline-5-one-9,11-disulfonamide]

% PARS inhibition at 100 nM [1]: 77%
% PARS inhibition at 300 nM [1]: 82%
SMILES: O=c1[nH]c2c(c3ccccc13)Cc1cc(S(=O)(=O)n3ccnc3)ccc1-2 [Compound 8d, 9-[N-(imidazolo-1-yl)sulphonyl]-5,6-dihydro-5-oxo-11H-isoquinoline]

% PARS inhibition at 100 nM [1]: 48%
% PARS inhibition at 300 nM [1]: 55%
SMILES: CN1CCN(CCCNS(=O)(=O)c2ccc3c(c2)Cc2c-3[nH]c(=O)c3ccccc23)CC1 [Compound 8o, 9-[N-[3-(4-methylpiperazino-1-yl]propyl)-aminosulphonyl]-5,6-dihydro-5-oxo-11H-indeno-[1,2c]isoquinoline]

inhibition at 0.1 µM [1]: 34%
inhibition at 0.3 µM [1]: 79%
inhibition at 1 µM [1]: 84%
SMILES: O=c1[nH]c2c3cc(O)ccc3oc2c2ccccc12 [Compound 23a, 8-Hydroxy-6H-11-oxa-6-aza-benzo[a]fluoren-5-one]

% PARS inhibition at 100 nM [1]: 20%
% PARS inhibition at 300 nM [1]: 28%
SMILES: O=c1[nH]c2c(c3ccccc13)Cc1cc(S(=O)(=O)N(CCN(CCO)CCO)CCN(CCO)CCO)ccc1-2 [Compound 8r, 9-[N,N-di(2[N,N-dihydroxyethylamino]ethyl)-aminosulphonyl]-5,6-dihydro-5-oxo-11H-indeno-[1,2c]isoquinoline]

inhibition at 0.1 µM [1]: 34%
inhibition at 0.3 µM [1]: 55%
SMILES: CN(C)CCNS(=O)(=O)c1ccc2c(c1)Cc1c-2[nH]c(=O)c2ccccc12 [Compound 8g, 9-[N-(2-[N,N-dimethylamino]ethyl)aminosulphonyl]-5,6-dihydro-5-oxo-11H-indeno[1,2-c]isoquinoline]

% PARS inhibition at 100 nM [1]: 56%
% PARS inhibition at 300 nM [1]: 76%
SMILES: O=c1[nH]c2c(c3ccccc13)Cc1cc(S(=O)(=O)NCCN3CCCCC3)ccc1-2 [Compound 8h, 9-[N-(2-[piperidino-1-yl]ethyl)-aminosulphonyl]-5,6-dihydro-5-oxo-11H-indeno[1,2-c]isoquinoline]
